Assay results taken from patent US11427548B2 (Arvinas Operations, Inc., priority 2015, dated 2022).
Where two headings read alike, the source gives them in different places.

Target: T1, Androgen Receptor (Homo sapiens, UniProt P10275)
T1 construct: endogenous in cells; host or cells: VCaP cells
T1 sequence (P10275 1-920): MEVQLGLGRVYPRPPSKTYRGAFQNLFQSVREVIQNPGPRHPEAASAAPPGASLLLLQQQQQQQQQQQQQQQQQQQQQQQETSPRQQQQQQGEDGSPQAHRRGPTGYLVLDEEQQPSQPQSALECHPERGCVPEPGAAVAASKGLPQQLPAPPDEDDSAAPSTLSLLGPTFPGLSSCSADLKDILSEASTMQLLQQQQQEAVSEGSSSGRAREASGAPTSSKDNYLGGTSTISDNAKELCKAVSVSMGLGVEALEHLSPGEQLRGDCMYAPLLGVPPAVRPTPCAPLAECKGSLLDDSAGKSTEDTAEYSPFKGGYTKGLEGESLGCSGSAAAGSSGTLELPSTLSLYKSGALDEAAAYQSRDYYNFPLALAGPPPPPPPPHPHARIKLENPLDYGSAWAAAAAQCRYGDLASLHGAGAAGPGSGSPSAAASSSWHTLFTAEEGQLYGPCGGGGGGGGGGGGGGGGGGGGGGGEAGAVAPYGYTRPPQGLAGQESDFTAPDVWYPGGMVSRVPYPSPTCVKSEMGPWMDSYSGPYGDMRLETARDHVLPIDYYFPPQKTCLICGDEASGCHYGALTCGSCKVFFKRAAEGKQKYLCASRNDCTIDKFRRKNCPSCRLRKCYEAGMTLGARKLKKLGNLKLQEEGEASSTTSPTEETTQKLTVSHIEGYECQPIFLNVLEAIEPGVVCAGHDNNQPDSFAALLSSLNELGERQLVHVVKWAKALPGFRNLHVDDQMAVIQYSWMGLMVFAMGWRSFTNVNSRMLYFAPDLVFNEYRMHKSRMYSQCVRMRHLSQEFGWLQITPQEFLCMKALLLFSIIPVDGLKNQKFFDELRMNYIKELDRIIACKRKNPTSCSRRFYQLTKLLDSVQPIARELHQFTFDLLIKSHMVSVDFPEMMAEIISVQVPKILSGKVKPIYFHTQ
Assay: Androgen Receptor ELISA assay (PathScan AR ELISA) in VCaP cells: AR degradation, Dmax and DC50
Format: cell-based
Summary of the method: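 VCaP cells in phenol red-free RPMI with 5% charcoal-stripped FBS were grown at least 3 days, then given compound as 7 half-log doses in 0.1% DMSO with 0.1 nM R1881 for 24 h. Lysates went into a sandwich AR ELISA with TMB read at 450 nm.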

[1] = VCaP, highest percentage of Androgen Receptor degradation observed, VCaP cells (Table 32); read-out: VCaP Dmax (%)
[2] = concentration that caused 50% Androgen Receptor degradation, VCaP cells (Table 32); read-out: VCaP DC50
[3] = VCaP cells; concentration that caused 50% Androgen Receptor degradation; read-out: VCaP DC50
[4] = VCaP, VCaP cells; highest percentage of Androgen Receptor degradation; read-out: VCaP Dmax (%)
[5] = read-out: VCaP DC50; VCaP cells; concentration that caused 50% Androgen Receptor degradation
[6] = read-out: VCaP DC50; VCaP cells; Table 34

Structure (SMILES) | DC50 [3] [µM] | Dmax [4] [%] | further results
Cc1ncsc1-c1ccc(CNC(=O)[C@@H]2C[C@@H](O)CN2C(=O)[C@@H](NC(=O)CNCCCCCOc2ccc(C(=O)N[C@H]3C(C)(C)[C@H](Oc4ccc(C#N)c(Cl)c4)C3(C)C)cc2)C(C)(C)C)cc1 [Example 188] | – | – | Dmax [1]: > 71%; DC50 [2]: < 0.05 µM
Cc1ncoc1-c1ccc(CNC(=O)[C@@H]2C[C@@H](O)CN2C(=O)[C@@H](NC(=O)CNCCCCCOc2ccc(C(=O)N[C@H]3C(C)(C)[C@H](Oc4ccc(C#N)c(Cl)c4)C3(C)C)cc2)C(C)(C)C)cc1 [Example 189, (2S,4R)-1-[(2S)-3,3-dimethyl-2-(2-{[5-(4-{[trans-3-(3-chloro-4-cyanophenoxy)-2,2,4,4-tetramethylcyclobutyl]carbamoyl}phenoxy)pentyl]amino}acetamido)butanoyl]-4-hydroxy-N-{[4-(4-methyl-1,3-oxazol-5-yl)phenyl]methyl)pyrrolidine-2-carboxamide] | – | – | Dmax [1]: 51 to 70%; DC50 [2]: < 0.05 µM
CC(C)(C)[C@H](NC(=O)COCCCCOc1ccc(-c2ccc(N3C(=S)N(c4cnc(C#N)c(C(F)(F)F)c4)C(=O)C3(C)C)cc2)cc1)C(=O)N1C[C@H](O)C[C@H]1C(=O)NCc1ccc(-c2cnco2)cc1 [Example 190, (2S,4R)-1-[(2S)-2-(2-{4-[4-(4-{3-[6-cyano-5-(trifluoromethyl)pyridin-3-yl]-5,5-dimethyl-4-oxo-2-sulfanylideneimidazolidin-1-yl}phenyl)phenoxy]butoxy}acetamido)-3,3-dimethylbutanoyl]-4-hydroxy-N-{[4-(1,3-oxazol-5-yl)phenyl]methyl}pyrrolidine-2-carboxamide] | < 0.05 | > 71 | –
CC(C)(C)[C@H](NC(=O)COCCCCOc1ccc(-c2ccc(N3C(=S)N(c4cnc(C#N)c(Cl)c4)C(=O)C3(C)C)cc2)cc1)C(=O)N1C[C@H](O)C[C@H]1C(=O)NCc1ccc(-c2cnco2)cc1 [Example 191, (2S,4R)-1-[(2S)-2-{2-[4-(4-{4-[3-(5-chloro-6-cyanopyridin-3-yl)-5,5-dimethyl-4-oxo-2-sulfanylideneimidazolidin-1-yl]phenyl}phenoxy)butoxy]acetamido}-3,3-dimethylbutanoyl]-4-hydroxy-N-{[4-(1,3-oxazol-5-yl)phenyl]methyl}pyrrolidine-2-carboxamide] | < 0.05 | 51 to 70 | –
Cc1ncoc1-c1ccc(CNC(=O)[C@@H]2C[C@@H](O)CN2C(=O)[C@@H](NC(=O)COCCCCOc2ccc(-c3ccc(N4C(=S)N(c5cnc(C#N)c(C(F)(F)F)c5)C(=O)C4(C)C)cc3)cc2)C(C)(C)C)cc1 [Example 192, (2S,4R)-1-[(2S)-2-(2-{4-[4-(4-{3-[6-cyano-5-(trifluoromethyl)pyridin-3-yl]-5,5-dimethyl-4-oxo-2-sulfanylideneimidazolidin-1-yl}phenyl)phenoxy]butoxy}acetamido)-3,3-dimethylbutanoyl]-4-hydroxy-N-{[4-(4-methyl-1,3-oxazol-5-yl)phenyl]methyl}pyrrolidine-2-carboxamide] | < 0.05 | > 71 | –
Cc1ncsc1-c1ccc(CNC(=O)[C@@H]2C[C@@H](O)CN2C(=O)[C@@H](NC(=O)COCCCCOc2ccc(-c3ccc(N4C(=S)N(c5cnc(C#N)c(C(F)(F)F)c5)C(=O)C4(C)C)cc3)cc2)C(C)(C)C)cc1 [Example 193, (2S,4R)-1-[(2S)-2-(2-{4-[4-(4-{3-[6-cyano-5-(trifluoromethyl)pyridin-3-yl]-5,5-dimethyl-4-oxo-2-sulfanylideneimidazolidin-1-yl}phenyl)phenoxy]butoxy}acetamido)-3,3-dimethylbutanoyl]-4-hydroxy-N-{[4-(4-methyl-1,3-thiazol-5-yl)phenyl]methyl}pyrrolidine-2-carboxamide] | < 0.05 | > 71 | –
Cc1ncsc1-c1ccc([C@H](C)NC(=O)[C@@H]2C[C@@H](O)CN2C(=O)[C@@H](NC(=O)COCCCCOc2ccc(-c3ccc(N4C(=S)N(c5cnc(C#N)c(C(F)(F)F)c5)C(=O)C4(C)C)c(F)c3)cc2)C(C)(C)C)cc1 [Example 196, (2S,4R)-1-[(2S)-2-(2-{4-[4-(4-{3-[6-cyano-5-(trifluoromethyl)pyridin-3-yl]-5,5-dimethyl-4-oxo-2-sulfanylideneimidazolidin-1-yl}-3-fluorophenyl)phenoxy]butoxy}acetamido)-3,3-dimethylbutanoyl]-4-hydroxy-N-[(1S)-1-[4-(4-methyl-1,3-thiazol-5-yl)phenyl]ethyl]pyrrolidine-2-carboxamide] | < 0.05 | > 71 | –
Cc1ncoc1-c1ccc(CNC(=O)[C@@H]2C[C@@H](O)CN2C(=O)[C@@H](NC(=O)COCCCCOc2ccc(-c3ccc(N4C(=S)N(c5cnc(C#N)c(C(F)(F)F)c5)C(=O)C45CCC5)cc3)cc2)C(C)(C)C)cc1 [Example 198, (2S,4R)-1-[(2S)-2-(2-{4-[4-(4-{7-[6-cyano-5-(trifluoromethyl)pyridin-3-yl]-8-oxo-6-sulfanylidene-5,7-diazaspiro[3.4]octan-5-yl}phenyl)phenoxy]butoxy}acetamido)-3,3-dimethylbutanoyl]-4-hydroxy-N-{[4-(4-methyl-1,3-oxazol-5-yl)phenyl]methyl}pyrrolidine-2-carboxamide] | < 0.05 | 51 to 70 | –
Cc1ncsc1-c1ccc(CNC(=O)[C@@H]2C[C@@H](O)CN2C(=O)[C@@H](NC(=O)COCCCCOc2ccc(-c3ccc(N4C(=S)N(c5cnc(C#N)c(C(F)(F)F)c5)C(=O)C45CCC5)cc3)cc2)C(C)(C)C)cc1 [Example 199, (2S,4R)-1-[(2S)-2-(2-{4-[4-(4-{7-[6-cyano-5-(trifluoromethyl)pyridin-3-yl]-8-oxo-6-sulfanylidene-5,7-diazaspiro[3.4]octan-5-yl}phenyl)phenoxy]butoxy}acetamido)-3,3-dimethylbutanoyl]-4-hydroxy-N-{[4-(4-methyl-1,3-thiazol-5-yl)phenyl]methyl}pyrrolidine-2-carboxamide] | < 0.05 | 51 to 70 | –
CC(C)(C)[C@H](NC(=O)COCC1CC2(C1)CC(COc1ccc(N3C(=S)N(c4ccc(C#N)c(Cl)c4)C(=O)C3(C)C)cc1)C2)C(=O)N1C[C@H](O)C[C@H]1C(=O)NCc1ccc(-c2cnco2)cc1 (stereo partly shown) [Example 200] | – | – | Dmax (VCaP, read-out: VCaP Dmax (%)): > 71%; DC50 [5]: < 0.05 µM
Cc1ncsc1-c1ccc(CNC(=O)[C@@H]2C[C@@H](O)CN2C(=O)[C@@H](NC(=O)COCC2CC3(C2)CC(COc2ccc(N4C(=S)N(c5ccc(C#N)c(C(F)(F)F)c5)C(=O)C45CCC5)cc2)C3)C(C)(C)C)cc1 (stereo partly drawn) [Example 203, (2S,4R)-1-[(2S)-2-[2-({6-[(4-{7-[4-cyano-3-(trifluoromethyl)phenyl]-8-oxo-6-sulfanylidene-5,7-diazaspiro[3.4]octan-5-yl}phenoxy)methyl]spiro[3.3]heptan-2-yl}methoxy)acetamido]-3,3-dimethylbutanoyl]-4-hydroxy-N-{[4-(4-methyl-1,3-thiazol-5-yl)phenyl]methyl} pyrrolidine-2-carboxamide] | – | – | Dmax (VCaP, read-out: VCaP Dmax (%)): > 71%; DC50 [5]: < 0.05 µM
Cc1ncsc1-c1ccc(CNC(=O)[C@@H]2C[C@@H](O)CN2C(=O)[C@@H](NC(=O)CCOCCN2CCC(COc3ccc(N4C(=S)N(c5ccc(C#N)c(C(F)(F)F)c5)C(=O)C4(C)C)cc3)CC2)C(C)(C)C)cc1 [Example 313] | – | – | DC50 [6]: < 0.05 µM
Cc1ncsc1-c1ccc(CNC(=O)[C@@H]2C[C@@H](O)CN2C(=O)[C@H](C(C)C)N2CC(OCCOCCOc3ccc(N4C(=S)N(c5ccc(C#N)c(C(F)(F)F)c5)C(=O)C4(C)C)cc3)=CC2=O)cc1 [Example 314] | – | – | Dmax (VCaP, read-out: VCaP Dmax (%)): < 25%; DC50 [6]: 0.051 to 0.5 µM
